Measured values published in ChEMBL document CHEMBL1148316, “Discovery of 5-(4-chlorophenyl)-1-(2,4-dichlorophenyl)-3-hexyl-1h-1,2,4-triazole, a novel in vivo cannabinoid antagonist containing a 1,2,4-triazole motif” (J Med Chem, 2004).
Activity calls are given as the source filed them. The calls are words filed in the database; no cut-off is given here.

What was measured:
Type in all cases: functional
[1] = organism: Cavia porcellus; test: Effect on electrically evoked contractions in […] plexus longitudinal muscles of guinea pig at 10E-8 to 2.4E-6 M; No effect; settings: Muscle tissue
[2] = Effect on cannabinoid tetrad (nociception, temperature, spontaneous motility and catalepsy) of behavioral test; no significant effect
[3] = organism: Mus musculus; test: Effect on electrically evoked contractions in mouse vas deferens at 10E-8 to 10E-6 M concentration; No effect
[4] = Effect on cannabinoid tetrad (nociception, temperature, spontaneous motility and catalepsy) of behavioral test; induce catalepsy
[5] = Effect on cannabinoid tetrad (nociception, temperature, spontaneous motility and catalepsy) of behavioral test; induce hypothermia
[6] = Effect on cannabinoid tetrad (nociception, temperature, spontaneous motility and catalepsy) of behavioral test; induce antinociception
[7] = Effect on cannabinoid tetrad (nociception, temperature, spontaneous motility and catalepsy) of behavioral test; inhibit spontaneous motility

| Structure (SMILES) | Activity [1] | Activity [3] | also measured |
| --- | --- | --- | --- |
| CCCCCCc1nc(-c2ccc(Cl)cc2)n(-c2ccc(Cl)cc2Cl)n1 | inactive | inactive | Activity [2]: inactive |
| Cc1c(C(=O)c2cccc3ccccc23)c2cccc3c2n1[C@H](CN1CCOCC1)CO3 | – | – | Activity [4]: Active; Activity [5]: Active; Activity [6]: Active; Activity [7]: Active |
| CCCCCCc1nc(-c2ccc(Cl)cc2Cl)n(-c2ccc(Cl)cc2Cl)n1 | inactive | inactive | – |
| CCc1nc(-c2ccc(Cl)cc2)n(-c2ccccc2)n1 | inactive | inactive | – |
| CCCCCCCc1nc(-c2ccccc2)n(-c2ccccc2)n1 | inactive | inactive | – |
| CCc1nc(-c2ccc(Cl)cc2)n(-c2ccc(Cl)cc2)n1 | inactive | inactive | – |
| CCCCCCc1nc(-c2ccc(Cl)cc2)n(-c2ccc(Cl)cc2)n1 | inactive | inactive | – |
